This is an account of results in a melting point compilation (Tetko et al.; mined from patent text by program, amines drawn as free bases though some values may be those of a salt).

For the molecule `CCCCc1nc2c(N)nc3ccccc3c2n1CCCNC(=O)OC(C)(C)C`, the melting point came out at 193 °C. Under `CC(C)n1nc(-c2cc(C#N)c(C(=O)O)nc2-c2ccccc2)ccc1=O` stands 196 to 198 °C; under `N#CC1(C#N)C2CC(C(Cl)C2Cl)C1(Cl)Cl` (stereo unspecified), 126 °C. As to `CC(O)c1ccc(C2CCCCC2)cc1` (stereo unspecified), the melting point lay within 81.5 to 82.5 °C. In turn, `COCCOC(=O)C1Oc2ccccc2Cc2ccccc2O1` registered a melting point of 74 to 76 °C. Under `COc1ccc(CN2CCC(c3cn(Cc4ccc(Cl)s4)c4cccnc34)CC2)cc1C(=O)O` stands 201 to 202 °C; under `c1cn(-c2ccc(N3CCNCC3)cc2)cn1`, 177 to 180 °C; under `CCCCCCCCCCCCCCCCS(=O)(=O)c1ccc(-n2c(=O)cc(N)n2C(=O)OCC)cc1`, 92 °C. With `CCCCCCc1cc2c(s1)-n1c(C)nnc1CN=C2c1ccc(C)c(C)c1` the figure was 98 to 100 °C; with `CCS(=O)(=O)N1CCN(C(=O)OC2CCC3(CO3)C(C3(C)OC3CC=C(C)C)C2OC)CC1` (stereo unspecified), 91 to 92 °C; with `O=Cc1ccc2c(c1)ncn2-c1cccc(Br)c1`, 179 to 181 °C. `CCOC(=O)Cc1ccc(SCc2cc(C)ccc2C(=O)O)cc1` displayed a melting point of 94 °C.

Take `Fc1ccccc1C1=NCc2cnc(Cl)nc2-c2ccc(Cl)cc21`: the melting point lay in the range of 157 to 160 °C.

With `O=S1(=O)NCCOc2ccc(Br)cc21`, the melting point turned out to be 129 °C. Under `CCC(C)(C#N)NC(=O)Cc1c(C)cc(C)cc1C` (stereo unspecified) stands 155 to 157 °C.

Take `CN(C)C(=O)Cc1c(-c2ccc(Cl)cc2)nn2cccnc12`: the melting point fell in the range of 174 to 176 °C. In turn, `Cn1c(=O)c2c(NN)nccc2n(C)c1=O` had a melting point of 244 °C.

With `CC(C)Oc1cccc2c1C1=NCCN1c1c(-c3noc(C4CC4)n3)ncn1-2`, the melting point is 211 to 214 °C.

With `CCCC(=O)C1=C(O)CC(c2cc(C3CCCO3)no2)CC1=O` (stereo unspecified), the melting point was 102 to 104 °C. On to `COc1ccc(C2CCc3cc(OC)ccc3C2C#N)cc1` (stereo unspecified), for which the melting point was found to be 92 °C. `CCCNC(=O)N(Cc1ccccc1)NC(=O)OC(C)(C)C`: the melting point is 123 to 124 °C. Under `CCOC(=O)c1cnc2c3cc(N)ccc3c(C)cn2c1=O` stands 245 to 248 °C. Molecule `O=C(c1ccccc1O)N1CC2CCC(C1)O2` came in with a melting point of 155 to 157 °C.

`Clc1ccc(OC2CCC3(CCNCC3)CC2)cc1` came in with a melting point of 140 to 142 °C. With `CCNNc1nc(C)c(C(=O)OCC)c(Cl)c1[N+](=O)[O-]` the figure was 117 to 120 °C. The molecule `Cc1cc(C)cc(Sc2c(C(C)C)nc(C=NN)n2C)c1` returned a melting point of 118 to 119 °C. With `C=C(C)CN1C[C@H](C)Nc2c(cc(Cl)cc2[N+](=O)[O-])C1=O` the figure was 66.5 °C. Under `O=[N+]([O-])C(CO)(CO)CCc1ccc(Sc2cccc(OCc3ccccc3)c2)cc1Cl` stands 69 to 70 °C; under `COc1cccc(NC(=O)Nc2ccc(N3CCN(C(=O)Nc4ccc(OCCO)cc4Cl)CC3)cc2)c1`, 198 to 201 °C.

Molecule `CCCCC(Oc1ccc(C#N)cc1C=O)C(=O)OC` (stereo unspecified) had a melting point of 77 to 79 °C. Under `O=C(OCc1ccccc1)c1ccc(OC(=O)c2ccc(C(=O)Oc3ccc(C(=O)OCc4ccccc4)cc3)cc2)cc1` stands 186 to 187 °C; under `O=CN(O)C(COCc1ccccc1)CS(=O)(=O)N1CCN(c2cc(Cl)ncn2)CC1` (stereo unspecified), 118 to 120 °C. Under `C=C(C)C(=O)OCCCCOC(=O)/C=C/c1ccc(OC(=O)OCC)cc1` stands 54 to 56 °C. `Cc1nc(C)c(Cl)c(NCc2ccc(Oc3ccc4ncc([N+](=O)[O-])n4n3)c(O)c2)n1` displayed a melting point of more than 114 °C.

The molecule `COC(=O)c1cc2c3ccccc3n(C(=O)c3ccccc3)c2s1` returned a melting point of 150 to 151 °C. Consider `CC(C)(C)OC(=O)CCC1(C(=O)O)CCCC1`, for which the melting point was 78 to 81 °C.
